Experimental data taken from patent US12052991B2, “Substituted pyridinyloxybenzenes and salts thereof and use thereof as herbicidal agents” (Bayer Aktiengesellschaft, priority 2018, dated 2024).

Legend:
Format in all cases: in vivo
Bassia scoparia (KCHSC) [1] = assay: Herbicidal post-emergence action (Table B11); conditions: visual rating about 3 weeks after treatment, 100% = plants have died, 0% = like control plants
In short: (§1)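 Activity was scored visually against untreated plants roughly 3 weeks after treatment, 0% meaning like control and 100% plant death. Application was post-emergence onto green parts at the one-leaf stage, as aqueous suspension/emulsion with 0.5% additive, 600 l/ha, delivering 1280 or 320 g/ha to greenhouse plants in sandy loam.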

[2] = system: Digitaria sanguinalis (DIGSA); assay: Herbicidal pre-emergence action, test C (Table C10); conditions: visual scoring after about 3 weeks, 100% = plants have died, 0% = like control plants
In short: (§2)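 Visual percentage damage relative to untreated pots (0% = like control, 100% = dead) was rated roughly 3 weeks after pre-emergence treatment in the greenhouse. Sandy loam pots were sown with weed seeds and covered with soil. The surface was sprayed with WP or EC formulations plus 0.5% additive at 600 L/ha, delivering 1280 or 320 g/ha.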

Bassia scoparia (KCHSC) [3] = assay: Herbicidal pre-emergence action, test C (Table C11); conditions: visual scoring vs untreated controls
In short: as §2

[4] = system: Matricaria inodora (MATIN); assay: Herbicidal post-emergence action (Table B7); conditions: rated visually after about 3 weeks, 100% = plants have died, 0% = like control plants
In short: as §1

Veronica persica (VERPE) = assay: Herbicidal pre-emergence action, test D, single sowings (Table D8); conditions: dosage 80 g/ha, scored after about 3 weeks
From the text: (§3) Seeds of monocotyledonous and dicotyledonous weed plants were laid out in plastic or organic plant pots (single sowings with one species of mono- or dicotyledonous weed plant per pot) and covered with soil. The compounds of the invention, formulated in the form of wettable powders (WP) or as emulsion concentrates (EC), were then applied to the surface of the covering soil as aqueous suspension or emulsion with addition of 0.5% additive at a water application rate equivalent to 600 l/ha (converted). After the treatment, the pots were placed in a greenhouse and kept under good growth conditions for the test plants. After about 3 weeks, the effect of the preparations was scored visually in comparison with untreated controls as percentages. For example, 100% activity=the plants have died, 0% activity=like control plants. Tables D1 to D8 below show the effects of selected compounds of the general formula (I) according to Table 1 on various harmful plants and an application rate corresponding to 80 g/ha, which were obtained by the experimental procedure mentioned above.

[5] = system: Digitaria sanguinalis (DIGSA); assay: Herbicidal pre-emergence action, test D, single sowings (Table D2); conditions: 80 g/ha; scored visually after about 3 weeks; 100% = plants have died, 0% = like control plants
From the text: as §3

[6] = system: Amaranthus retroflexus (AMARE); assay: Herbicidal pre-emergence action, test D, single sowings (Table D5); conditions: dosage 80 g/ha, scored after about 3 weeks
From the text: as §3

viola tricolor (VIOTR) = assay: Herbicidal pre-emergence action, test D, single sowings (Table D7); conditions: dosage 80 g/ha, scored after about 3 weeks
From the text: as §3

[7] = system: Alopecurus myosuroides (ALOMY); assay: Herbicidal pre-emergence action, test D, single sowings (Table D1); conditions: 80 g/ha; scored visually after about 3 weeks; 100% = plants have died, 0% = like control plants
From the text: as §3

| Compound | Post-emergence action against Bassia scoparia (KCHSC) (Bassia scoparia (KCHSC) [1]; dosage 320 g/ha) [%] | Post-emergence action against Bassia scoparia (KCHSC) (Bassia scoparia (KCHSC) [1]; dosage 1280 g/ha) [%] | Pre-emergence action against Digitaria sanguinalis (DIGSA) ([2]; dosage 320 g/ha) [%] | Pre-emergence action against Digitaria sanguinalis (DIGSA) ([2]; dosage 1280 g/ha) [%] | Pre-emergence action against Bassia scoparia (KCHSC) (Bassia scoparia (KCHSC) [3]; dosage 1280 g/ha) [%] | Post-emergence action against Matricaria inodora (MATIN) ([4]; 1280 g/ha) [%] | Pre-emergence action against Veronica persica (VERPE) (Veronica persica (VERPE)) [%] | Pre-emergence action against Digitaria sanguinalis (DIGSA) [5] [%] | Pre-emergence action against Amaranthus retroflexus (AMARE) [6] [%] | Pre-emergence action against viola tricolor (VIOTR) (viola tricolor (VIOTR)) [%] | Pre-emergence action against Alopecurus myosuroides (ALOMY) [7] [%] | Post-emergence action against Matricaria inodora (MATIN) ([4]; 320 g/ha) [%] | Pre-emergence action against Bassia scoparia (KCHSC) (Bassia scoparia (KCHSC) [3]; dosage 320 g/ha) [%] |
| --- | --- | --- | --- | --- | --- | --- | --- | --- | --- | --- | --- | --- | --- |
| Cc1cccc(Oc2ccc(Cl)cn2)c1-c1cc(C(F)F)no1 [Example 1-18, 5-[2-[(5-Chloro-2-pyridyl)oxy]-6-methylphenyl]-3-(difluoromethyl)isoxazole] | 100 | 100 | 100 | 100 | 90 | 100 | – | – | – | – | – | – | – |
| FC(F)c1cc(-c2ccccc2Oc2ccc(Cl)cn2)on1 [Example 1-35] | 100 | 100 | – | 100 | 90 | – | 100 | 100 | 100 | 90 | – | – | – |
| Fc1cccc(Oc2ccc(Cl)cn2)c1-c1cc(C(F)F)no1 [Example 1-17] | – | – | – | – | – | 100 | 100 | 90 | 100 | 100 | 100 | 100 | – |
| Fc1cccc(Oc2ccc(Br)cn2)c1-c1cc(C(F)F)no1 [Example 1-40] | 100 | 100 | 100 | 100 | 100 | 100 | – | – | – | – | – | 100 | 100 |
| Fc1cc(Cl)cnc1Oc1ccccc1-c1cc(C(F)F)no1 [Example 1-36] | 100 | 100 | 100 | 100 | 90 | – | 100 | 100 | 100 | 100 | – | – | – |
| Cc1cccc(Oc2ncc(Cl)cc2F)c1-c1cc(C(F)F)no1 [Example 1-20] | 100 | 100 | 90 | 100 | 90 | 100 | – | – | – | – | – | – | – |
| Fc1cc(Cl)cnc1Oc1cccc(F)c1-c1cc(C(F)F)no1 [Example 1-19] | – | – | – | – | – | 100 | 100 | 100 | 100 | 100 | 100 | – | – |
